The text below walks through data of patent US20210300912A1 (Ikena Oncology, Inc., priority 2019, published 2021).

The target in assay [1] is T1, AHR (Homo sapiens, UniProt P35869).
T1 construct: endogenous in cells; host or cells: HepG2 (human), DRE-luciferase reporter stably or transiently transfected
T1 sequence (P35869 11-848): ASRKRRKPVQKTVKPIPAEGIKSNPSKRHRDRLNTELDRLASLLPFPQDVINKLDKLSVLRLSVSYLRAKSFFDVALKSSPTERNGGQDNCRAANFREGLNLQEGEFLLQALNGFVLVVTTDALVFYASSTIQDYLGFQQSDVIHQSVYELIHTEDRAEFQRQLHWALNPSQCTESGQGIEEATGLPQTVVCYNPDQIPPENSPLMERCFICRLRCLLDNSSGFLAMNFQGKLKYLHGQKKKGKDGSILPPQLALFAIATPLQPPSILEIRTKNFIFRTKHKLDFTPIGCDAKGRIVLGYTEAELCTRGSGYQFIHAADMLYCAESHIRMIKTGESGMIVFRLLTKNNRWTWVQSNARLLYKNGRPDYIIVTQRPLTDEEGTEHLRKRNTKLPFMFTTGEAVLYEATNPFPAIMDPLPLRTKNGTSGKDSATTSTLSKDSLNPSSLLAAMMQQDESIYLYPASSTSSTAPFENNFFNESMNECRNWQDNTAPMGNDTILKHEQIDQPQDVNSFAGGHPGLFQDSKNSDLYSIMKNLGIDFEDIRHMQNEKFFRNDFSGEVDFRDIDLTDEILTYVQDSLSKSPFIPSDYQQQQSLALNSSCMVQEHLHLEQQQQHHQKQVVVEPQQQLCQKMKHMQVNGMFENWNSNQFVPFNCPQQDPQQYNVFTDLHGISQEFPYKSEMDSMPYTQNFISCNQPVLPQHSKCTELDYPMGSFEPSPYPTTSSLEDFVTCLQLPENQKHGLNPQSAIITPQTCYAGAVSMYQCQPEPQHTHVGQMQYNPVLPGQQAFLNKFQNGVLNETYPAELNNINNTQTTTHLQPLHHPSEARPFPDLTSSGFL
Put plainly: DRE-Luciferase Reporter Assay, HepG2, agonist. As to conditions: HepG2 cells, agonist mode. The assay is classed as cell-based. The method, then: (§1) AHR binds to Dioxin Responsive Elements (DRE) upstream of genes that it activates. One measure of AHR activity is activation of a reporter gene, such as luciferase, downstream of one or multiple DRE elements. Luciferase activity will reflect activation and inhibition of AHR in the cells expressing this reporter.
(§2) Murine Hepa1-6 or Hepa-1c1c7 or other murine cell line with a DRE-luciferase reporter either stably or transiently transfected are plated in media in plates (96-well, 384-well or other plates) and incubated overnight at 37 C in a CO2 incubator. Likewise, human HepG2 or other human cell line with a DRE-luciferase reporter either stably or transiently transfected are plated in media in plates (96-well, 384-well or other plates) and incubated overnight at 37 C in a CO2 incubator.
(§3) The next day, an AHR agonist compound is added. Cells are incubated for 6, 16 or 24 hours or another time point and then lysed for determination of luciferase activity as a read-out of the AHR activation. Luciferase can be measured with a commercial kit such as the Promega Luciferase kit or any kit or reagents that provide the luciferin substrate for measuring luciferase activity. The level of luciferase with only activating ligand (e.g. such as TCDD, kynurenine, ITE (2-(1H-indole-3-ylcarbonyl)-4-thiazolecarboxylic methyl ester), VAF347, BNF (beta-naphthoflavone), ICZ (6-formylindolo(3,2-b) carbazole or other AHR ligands) added is the maximum signal while the luciferase with no ligand is the minimum signal. EC50s can be determined as the concentration which activates half of the maximum luciferase activity.

The target of assay [2] is T2, AHR (Mus musculus, UniProt P30561).
T2 construct: endogenous in cells; host or cells: Hepa1-6 / Hepa1.6 (murine hepatoma); DRE-luciferase reporter transfected in A3, no transfection in A2
Put plainly: DRE-Luciferase Reporter Assay, Hepa1.6, agonist. The assay is classed as cell-based, murine. As to conditions: Hepa1.6 cells, agonist mode. As to the method: as §1, §2, §3
Background: In a reporter assay the amount or activity of a reporter protein is the signal.

Where [3] appears, read: Table 2, read-out: DRE-Luc HepG2 - Agonist: Average EC50.
The mark [4] stands for this setting: Table 3, read-out: DRE-Luc HepG2 - Agonist: Average EC50.
Setting [5] is: DRE-Luc Hepa1.6 - Agonist: Average EC50 (μM), Table 3.
The mark [6] stands for this setting: Table 3, read-out: DRE-Luc Hepa1.6 - Agonist: Average EC50.

Like-named read-outs stand apart in the source and are kept apart here.

T2 sequence (P30561 10-805 limits assumed): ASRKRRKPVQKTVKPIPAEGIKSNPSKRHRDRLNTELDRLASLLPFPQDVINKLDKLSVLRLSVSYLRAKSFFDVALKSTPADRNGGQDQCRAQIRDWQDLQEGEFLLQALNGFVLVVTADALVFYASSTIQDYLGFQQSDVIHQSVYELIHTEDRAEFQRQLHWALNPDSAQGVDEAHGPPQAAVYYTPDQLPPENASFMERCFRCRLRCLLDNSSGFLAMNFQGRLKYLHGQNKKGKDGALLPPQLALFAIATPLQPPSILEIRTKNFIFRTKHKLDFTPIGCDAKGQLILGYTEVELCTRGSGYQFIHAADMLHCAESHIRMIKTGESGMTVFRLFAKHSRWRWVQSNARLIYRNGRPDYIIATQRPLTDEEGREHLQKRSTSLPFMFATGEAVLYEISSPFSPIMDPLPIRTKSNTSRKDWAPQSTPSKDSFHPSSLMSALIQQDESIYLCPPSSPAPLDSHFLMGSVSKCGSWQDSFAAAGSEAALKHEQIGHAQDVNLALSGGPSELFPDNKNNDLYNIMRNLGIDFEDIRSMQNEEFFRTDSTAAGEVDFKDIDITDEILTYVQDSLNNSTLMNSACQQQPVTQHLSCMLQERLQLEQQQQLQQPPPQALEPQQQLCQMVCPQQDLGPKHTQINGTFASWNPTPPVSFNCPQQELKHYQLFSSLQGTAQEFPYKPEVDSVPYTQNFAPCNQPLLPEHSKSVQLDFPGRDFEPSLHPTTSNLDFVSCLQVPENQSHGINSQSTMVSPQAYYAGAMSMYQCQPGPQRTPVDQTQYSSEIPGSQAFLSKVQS
T2 sequence (P11499 whole entry partner): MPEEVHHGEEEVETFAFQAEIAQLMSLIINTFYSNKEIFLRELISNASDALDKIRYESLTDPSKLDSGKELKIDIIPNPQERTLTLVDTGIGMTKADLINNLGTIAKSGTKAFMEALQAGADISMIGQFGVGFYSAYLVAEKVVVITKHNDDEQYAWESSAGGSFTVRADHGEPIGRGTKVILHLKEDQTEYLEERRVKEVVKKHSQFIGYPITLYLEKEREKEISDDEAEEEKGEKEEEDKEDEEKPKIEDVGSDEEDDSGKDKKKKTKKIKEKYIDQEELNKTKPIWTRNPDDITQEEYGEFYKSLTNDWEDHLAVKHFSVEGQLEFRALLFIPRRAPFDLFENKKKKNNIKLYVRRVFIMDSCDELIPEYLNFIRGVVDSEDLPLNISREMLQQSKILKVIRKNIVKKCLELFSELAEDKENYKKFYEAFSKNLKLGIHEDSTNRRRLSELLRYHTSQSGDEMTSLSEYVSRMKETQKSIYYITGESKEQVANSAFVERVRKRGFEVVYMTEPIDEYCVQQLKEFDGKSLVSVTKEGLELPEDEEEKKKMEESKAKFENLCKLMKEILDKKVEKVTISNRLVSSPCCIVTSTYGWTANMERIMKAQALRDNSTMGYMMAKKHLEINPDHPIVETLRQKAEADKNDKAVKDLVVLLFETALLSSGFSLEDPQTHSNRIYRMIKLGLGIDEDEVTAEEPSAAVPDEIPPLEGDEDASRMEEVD
T2 sequence (O08915 whole entry partner): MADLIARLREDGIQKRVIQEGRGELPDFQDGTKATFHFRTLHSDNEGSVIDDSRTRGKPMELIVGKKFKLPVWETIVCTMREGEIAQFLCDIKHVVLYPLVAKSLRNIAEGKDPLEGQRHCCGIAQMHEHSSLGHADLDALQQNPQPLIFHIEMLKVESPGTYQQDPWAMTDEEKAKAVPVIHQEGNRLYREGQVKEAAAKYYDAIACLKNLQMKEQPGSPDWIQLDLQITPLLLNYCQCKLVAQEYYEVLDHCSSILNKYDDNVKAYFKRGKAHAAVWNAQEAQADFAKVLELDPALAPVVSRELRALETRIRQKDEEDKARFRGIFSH

In the case of `Cc1sc(C(=O)c2c[nH]c3ccccc23)nc1C(=O)OCCOCC[N+](C)(C)C` [Compound I-1], in assay [1] (setting [3]), the EC50 is less than 0.01 µM.
For the compound `CN(C)C(=O)c1csc(C(=O)c2c[nH]c3ccccc23)n1` [Compound I-3, 2-(1H-Indole-3-carbonyl)-N,N-dimethyl-thiazole-4-carboxamide], the EC50 in assay [1] (setting [3]) is 0.01 to 0.1 µM.
Still for that read-out and setting: then `COC(=O)c1csc(C(=O)c2c[nH]c3cc(OC)ccc23)n1` [Compound I-6], with 0.1 to 1 µM; and `CN(CCOCCO)C(=O)c1csc(C(=O)c2c[nH]c3ccccc23)n1` [Compound I-12], with 0.1 to 1 µM.
As for `O=C(NCCOCCO)c1csc(C(=O)c2c[nH]c3ccccc23)n1` [Compound I-13], in assay [1] (setting [3]), the EC50 was 0.1 to 1 µM.
With `COC(=O)c1nc(C(=O)c2c[nH]c3ccccc23)sc1C` [Compound I-14], in assay [1] (setting [3]), the EC50 fell in the range of 0.1 to 1 µM.
In the case of `COC(=O)c1nc(C(=O)c2c[nH]c3cccc(C)c23)sc1C` [Compound I-15], in assay [1] (setting [3]), the EC50 is 0.1 to 1 µM.
Same read-out and setting: then `Cc1sc(C(=O)c2c[nH]c3ccccc23)nc1C(=O)NCCOCC[N+](C)(C)C` [Compound I-16], with 0.1 to 1 µM.
On to `Cc1sc(C(=O)c2c[nH]c3ccccc23)nc1C(=O)NCCOCCN(C)C` [Compound I-17], for which, in assay [1] (setting [3]), the EC50 is 0.1 to 1 µM.
As for `CN(CCO)CCOC(=O)c1csc(C(=O)c2c[nH]c3ccccc23)n1` [Compound I-21], the EC50 in assay [1] (setting [3]) is more than 1 µM.
On the same count and under the same terms, then `C[N+](C)(C)CCOCCNC(=O)c1csc(C(=O)c2c[nH]c3ccccc23)n1` [Compound I-22], with more than 1 µM.
Regarding `C[N+](C)(C)CCOCCOC(=O)c1csc(C(=O)c2c[nH]c3ccccc23)n1` [Compound I-24], the EC50 in assay [1] (setting [3]) was more than 1 µM.
Same read-out and setting: then `CN1CCN(C(=O)c2csc(C(=O)c3c[nH]c4ccccc34)n2)CC1` [Compound I-25], with more than 1 µM.
With `O=C(O)CCOCCNC(=O)c1csc(C(=O)c2c[nH]c3ccccc23)n1` [Compound I-26], the EC50 in assay [1] (setting [3]) was more than 1 µM.
As to `COC(=O)c1csc(C(=O)n2cnc3ccccc32)n1` [Compound I-27], the EC50 in assay [1] (setting [3]) is more than 1 µM.
The same measure, in the same setting: the value for `C[N+]1(C)CCN(C(=O)c2csc(C(=O)c3c[nH]c4ccccc34)n2)CC1` [Compound I-28] was more than 1 µM.
In the case of `Cc1sc(C(=O)c2c[nH]c3ccccc23)nc1C(=O)NCCOCCO` [Compound I-29, N-[2-(2-Hydroxyethoxy)ethyl]-2-(1H-indole-3-carbonyl)-5-methyl-thiazole-4-carboxamide], the EC50 in assay [1] (setting [3]) is more than 1 µM.
Turning to `COC(=O)c1cn(C)c(C(=O)c2c[nH]c3ccccc23)n1` [Compound I-30], in assay [1] (setting [3]), the EC50 is more than 1 µM.
For `COC(=O)c1nc(C(=O)c2c[nH]c3ccccc23)sc1C(C)C` [Compound I-31], the EC50 in assay [1] (setting [3]) was more than 1 µM.
Still for that read-out and setting: then `CC(C)c1sc(C(=O)c2c[nH]c3ccccc23)nc1C(=O)O` [Compound I-32], with more than 1 µM; and `COC(=O)c1cnc(C(=O)c2c[nH]c3ccccc23)n1C` [Compound I-33], with more than 1 µM.
For the compound `CN(C)CCOCCNC(=O)c1csc(C(=O)c2c[nH]c3ccccc23)n1` [Compound I-34, N-[2-[2-(Dimethylamino)ethoxy]ethyl]-2-(1H-indole-3-carbonyl)thiazole-4-carboxamide], the EC50 in assay [1] (setting [3]) was more than 1 µM.
With `O=C(c1nc(C(=O)N2CCCCC2)cs1)c1c[nH]c2ccccc12` [Compound I-35, 1H-indol-3-yl-[4-(piperidine-1-carbonyl)thiazol-2-yl]methanone], the EC50 in assay [1] (setting [3]) is more than 1 µM.
Consider `COC(=O)c1c[nH]c(C(=O)c2c[nH]c3ccccc23)n1` [Compound I-36], for which the EC50 in assay [1] (setting [3]) was more than 1 µM.
The same measure, in the same setting: the value for `O=C(O)COCCNC(=O)c1csc(C(=O)c2c[nH]c3ccccc23)n1` [Compound I-37] was more than 1 µM; that for `O=C(O)c1coc(C(=O)c2c[nH]c3ccccc23)n1` [Compound I-38] was more than 1 µM.
The same measure, in the same setting: then `Cn1c(C(=O)O)cnc1C(=O)c1c[nH]c2ccccc12` [Compound I-39], with more than 1 µM; and `Cc1sc(C(=O)c2c[nH]c3ccccc23)nc1C(=O)O` [Compound I-40], with more than 1 µM.
Turning to `CC(C)(C)OC(=O)NCCOCCNC(=O)c1csc(C(=O)c2c[nH]c3ccccc23)n1` [Compound I-41, tert-Butyl N-[2-[2-[[2-(1H-indole-3-carbonyl)thiazole-4-carbonyl]amino]ethoxy]ethyl]carbamate], the EC50 in assay [1] (setting [3]) was more than 1 µM.
With `NCCOCCNC(=O)c1csc(C(=O)c2c[nH]c3ccccc23)n1` [Compound I-42], in assay [1] (setting [3]), the EC50 was more than 1 µM.
Still for that read-out and setting: the value for `Cn1cc(C(=O)O)nc1C(=O)c1c[nH]c2ccccc12` [Compound I-43] was more than 1 µM.
The same measure, in the same setting: the value for `COC(=O)c1csc(C(=O)c2c[nH]c3ccc(O)cc23)n1` [Compound I-44] was more than 1 µM.
Turning to `COC(=O)c1csc(C(=O)c2c[nH]c3cc(O)ccc23)n1` [Compound I-45], the EC50 in assay [1] (setting [3]) was more than 1 µM.
`N#Cc1nc(C(=O)c2c[nH]c3ccccc23)sc1N` [Compound I-50]: the EC50 in assay [1] (setting [4]) and in assay [2] (setting [5]) was less than 0.01 µM each time.
Regarding `Nc1sc(C(=O)c2c[nH]c3ccccc23)nc1C(F)(F)F` [Compound I-51], the EC50 in assay [1] (setting [4]) and in assay [2] (setting [5]) was less than 0.01 µM in each case.
Consider `O=C(c1nc([C@H]2CC[C@H](O)CC2)cs1)c1c[nH]c2ccccc12` [Compound I-52], for which the EC50 in assay [1] (setting [4]) was 0.01 to 0.1 µM; in assay [2] (setting [6]), more than 1 µM.
For the compound `COC(=O)c1nc(C(=O)c2c[nH]c3ccccc23)sc1Br` [Compound I-53], the EC50 in assay [1] (setting [4]) was less than 0.01 µM; in assay [2] (setting [5]) it was 0.01 to 0.1 µM.
Regarding `COC(=O)c1nc(C(=O)c2c[nH]c3ccccc23)sc1C(F)(F)F` [Compound I-54], the EC50 was less than 0.01 µM in assay [1] (setting [4]) and more than 1 µM in assay [2] (setting [6]).
For `COC(=O)c1nc(C(=O)c2c[nH]c3ccccc23)sc1C` [Compound P-1], the concentration giving a half-maximal response (EC50) in assay [1] (setting [3]) is less than 0.01 µM.
As to `NC(=O)c1csc(C(=O)c2c[nH]c3ccccc23)n1` [Compound P-5], the EC50 in assay [1] (setting [3]) was 0.01 to 0.1 µM.
Regarding `O=C(OCCOCCO)c1csc(C(=O)c2c[nH]c3ccccc23)n1` [Compound P-6], the EC50 in assay [1] (setting [3]) lay in the range of 0.1 to 1 µM.
Take `COC(=O)c1csc(C(=O)c2c[nH]c3ccc(OC)cc23)n1` [Compound P-7]: in assay [1] (setting [3]), the EC50 is 0.1 to 1 µM.
The same measure, in the same setting: the value for `COC(=O)c1csc(/C(=N/O)c2c[nH]c3ccccc23)n1` [Compound P-8] was 0.1 to 1 µM.
Consider `O=C(OCCO)c1csc(C(=O)c2c[nH]c3ccccc23)n1` [Compound P-9], for which the EC50 in assay [1] (setting [3]) fell in the range of 0.1 to 1 µM.
For the compound `CO/N=C(\c1nc(C(=O)OC)cs1)c1c[nH]c2ccccc12` [Compound P-10], the EC50 in assay [1] (setting [3]) fell in the range of 0.1 to 1 µM.
The same measure, in the same setting: the value for `CO/N=C(/c1nc(C(=O)OC)cs1)c1c[nH]c2ccccc12` [Compound P-11] was more than 1 µM.
Turning to `COC(=O)c1csc(/C(=N\O)c2c[nH]c3ccccc23)n1` [Compound P-13], the EC50 in assay [1] (setting [3]) is more than 1 µM.
For `COC(=O)c1csc([C@H](O)c2c[nH]c3ccccc23)n1` [Compound P-14], in assay [1] (setting [3]), the EC50 was more than 1 µM.
As to `COC(=O)c1csc([C@@H](O)c2c[nH]c3ccccc23)n1` [Compound P-15], the EC50 in assay [1] (setting [3]) is more than 1 µM.
Same read-out and setting: the value for `COC(=O)c1csc(C(=O)c2cn(C)c3ccccc23)n1` [Compound P-16] was more than 1 µM; that for `COC(=O)c1csc(C(=O)c2n[nH]c3ccccc23)n1` [Compound P-17] was more than 1 µM.
The same measure, in the same setting: the value for `COC(=O)c1csc(C(=O)c2c[nH]c3cccnc23)n1` [Compound P-18] was more than 1 µM; that for `COC(=O)c1coc(C(=O)c2c[nH]c3ccccc23)n1` [Compound P-19] was more than 1 µM.

One may read the EC50 as the concentration at which the effect is half-maximal.
